Where two headings read alike, the source gives them in different places.
Tests used:
[1] = Rat IV PK study of lipid excipient ALC-0159; format: in vivo, Wistar Han rats; conditions: for half-life: Wistar Han, rat, plasma, iv, 1.96 mg ALC-0159/kg, 1.96 mg ALC-0159/kg single IV
Description: BNT142 contains the PEG lipid excipient ALC-0159 in the nanoparticle. […] ALC-0159 was then cleared from plasma with a terminal elimination ty, of 72.7 h. The estimated percent of lipid dose distributed to the liver was ˜20%.

[2] = Metabolism of ALC-0159 in vitro and ex vivo; format: in vitro ADME, mouse, rat, monkey and human; conditions: yields N,N-ditetradecylamine; across species
From the text: The metabolism of ALC-0159, was examined in vitro using blood, liver S9 fractions and hepatocytes, all from mouse, rat, monkey and human and ex vivo in the rat plasma, urine, feces, and liver from the PK study. […] This hydrolytic metabolism was observed across the species evaluated.

[3] = test system: CLDN6-positive human ovarian carcinoma (OV-90) xenograft; test: OV-90 xenograft model in PBMC-humanized NSG mice; format: in vivo, mouse
Description: NSG mice bearing advanced SC tumor xenografts of OV-90 cells (mean tumor volume at treatment start=100 mm^3) were engrafted with human PBMCs as effector cells by IP injection. Tumor volume was measured twice per week with a digital caliper. […] (A) Treatment schedule. (B) Tumor volume of individual mice at designated time points. (C) Overview of the median tumor volume per group, each comprising 13 to 14 mice at the start of the study and a minimum of five mice at the last data points. The vertical dotted lines represent the time points of IV administration of test/control items. Four mice (five mice from the 0.1 μg BNT142 group) from all groups were euthanized on Day 38 to obtain samples for ex vivo assays. (D) Number of CD3-positive cells per mm^2 of xenograft tissue as determined by immunohistochemical (IHC) staining using an anti-human CD3 antibody. […] Horizontal lines represent the mean (n=4 to 5). (E) Percentage of CLDN6-positive cells in tumor xenografts of mice from the respective test and control groups as determined by IHC staining using an anti-human CLDN6 antibody. Tumor xenografts were dissected at different time points over the course of the study. Horizontal lines represent the mean (n=8 to 10). […] Reddish-brown staining (dark in the black and white figure) indicates a positive IHC signal while the bluish-purple areas indicate an absence of positive staining (negative IHC signal).
To determine the anti-tumor efficacy of BNT142 in vivo, a CLDN6-positive human ovarian carcinoma (OV-90) xenograft mouse model was used. Briefly, immunodeficient male and female NOD.Cg-Prkd^scid IL2rg^tm1Wjl/SzJ (NSG) mice were subcutaneously (SC) inoculated with human OV-90 ovarian carcinoma cells. Mice with established tumors (mean size ≥30 mm^3) were engrafted intraperitoneally (IP) with human PBMCs from a healthy donor (resulting mouse model annotated as NSG/PBMC). Seven days later, a treatment regimen comprising five weekly single IV bolus injections of BNT142 or control items was initiated. BNT142 was administered at doses of 0.1 or 1 μg (˜0.004 and 0.04 mg/kg) per mouse. […]

[4] = test system: human pro-inflammatory cytokines in NSG/PBMC mice; test: Human cytokine release in serum of NSG/PBMC mice; format: in vivo, mouse; conditions: 100 μg reference protein; 6-hour time point
Description: An additional non-tumor-bearing (w/o tumor) group administered with 1 μg BNT142 was included. (A) Concentrations of human cytokines (IFN-γ, IL-6, IL-2, IL-10, TNF-α and IL-1β) in mouse serum as determined by multiplex ELISA at the 6- (n=8) and 72-hour (n=4) time points. Data was normalized to saline-administered animals of the respective time points. Horizontal lines indicate medians. Unpaired and paired samples were compared using the Mann-Whitney U test or Wilcoxon signed-rank test, respectively. […] Horizontal lines indicate means.
The human pro-inflammatory cytokines IFN-γ, IL-1β, IL-2, IL-6, IL-10 and TNF-α were measured in serum samples of OV-90 human xenograft tumor-bearing NSG/PBMC mice obtained after 6 and 72 h of the third BNT142 administration (see above). An additional group of tumor-free NSG/PBMC mice was treated with 1 μg BNT142. […] Data were normalized to the values obtained with the saline control group at the respective time points.

CLDN6 = molecular target: T1, CLDN6 (Homo sapiens, UniProt P56747); test: Cell microarray off-target binding assay, CLDN6; conditions: fixed HEK293 cells overexpressing target
T1 construct: expressed in transfected cells
T1 sequence (P56747 1-220): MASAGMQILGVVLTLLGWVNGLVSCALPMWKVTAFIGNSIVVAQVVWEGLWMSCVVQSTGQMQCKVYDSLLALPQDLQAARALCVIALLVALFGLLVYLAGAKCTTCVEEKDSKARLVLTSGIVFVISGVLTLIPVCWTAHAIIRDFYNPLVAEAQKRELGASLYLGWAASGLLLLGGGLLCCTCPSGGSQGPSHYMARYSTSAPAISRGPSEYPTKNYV
From the text: (§1) The tribody was screened for binding against fixed human HEK293 cells, individually overexpressing 6,239 different full-length human plasma membrane proteins and cell surface-tethered human secreted proteins, including 371 heterodimers.

[5] = test system: 6,239 full-length human plasma membrane proteins and cell surface-tethered human secreted proteins; test: Cell microarray off-target binding assay, remaining panel; conditions: fixed HEK293 cells
From the text: as §1

CLDN9 = molecular target: T2, CLDN9 (Homo sapiens, UniProt O95484); test: Cell microarray off-target binding assay, CLDN9; parameters: individually overexpressing 6,239 different full-length human plasma membrane proteins; expressed in transfected cells; host or cells: fixed human HEK293 cells; conditions: fixed HEK293 cells overexpressing target
T2 sequence (O95484 1-217): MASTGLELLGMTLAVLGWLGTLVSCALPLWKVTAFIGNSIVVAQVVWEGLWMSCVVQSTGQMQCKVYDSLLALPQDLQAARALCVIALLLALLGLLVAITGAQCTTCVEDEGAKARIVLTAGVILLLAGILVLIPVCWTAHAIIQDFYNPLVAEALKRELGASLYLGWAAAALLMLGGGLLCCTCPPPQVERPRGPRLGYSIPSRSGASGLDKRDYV
From the text: as §1

human PBMCs (T cells) [6] = test: T-cell proliferation assay (CFSE-labeled PBMCs, flow cytometry); format: cell-based; conditions: presence as well as absence of target cells
From the text: CFSE-labeled human PBMCs from three healthy donors were co-cultured with CLDN6-positive PA-1 and OV-90 target cells or with CLDN6-negative but control TAA-positive NUGC-4 as well as target-negative MDA-MB-231 control cells in a 12-well culture plate format. An effector-to-target-cell ratio of 10:1 was applied. In addition, PBMCs without (−) target cells were included separately. […] OKT3 antibody (anti-human CD3; black bars) served as positive control for target-independent CD3-driven T-cell proliferation. After 72 h of incubation, the percentages of proliferating T cells were analyzed by flow cytometry.
HEK-293T-17 producer cells were transfected with BNT142 or a control RiboMab-encoding RNA. Supernatants containing RiboMab02.1 or the control RiboMab (specific for an irrelevant TAA) were used as test items. Two concentrations (100 or 1 ng/mL) of RiboMab-containing supernatant were added to co-cultures of carboxyfluorescein succinimidyl ester (CFSE)-labeled human PBMCs and target-positive or -negative cells. PA-1 or OV-90 served as CLDN6-positive and MDA-MB-231 as target-negative cells. CLDN6-negative NUGC-4 cells (expressing the irrelevant TAA) as well as PBMCs in the absence of any target cells were included as further specificity controls. PBMCs from three healthy donors were compared in this assay. After 72 h of incubation, T cells were analyzed by flow cytometry to determine target-dependent proliferation.

human PBMCs (T cells) [7] = test: T-cell activation assay (CD69/CD25, flow cytometry); format: cell-based; conditions: with and without target cells (data not shown)
Description: Human PBMCs from three healthy donors (effector cells) were cultured in the presence and absence of CLDN6-positive PA-1 cells (target cells) at a 10:1 effector-to-target-cell ratio. RiboMab02.1-containing mouse serum was serially-diluted (10-fold, 10-point; range: 4.0×10^−6 to 4,000 ng/mL) prior to use in the assay. After 48 h of co-incubation, cells were stained with anti-CD5, anti-CD69 and anti-CD25 antibodies for flow cytometric analysis of T cells. Shown here is the total T-cell activation normalized to samples incubated with mock serum from Luc_RNA-LNP-treated mice. Percentages of activated T cells are shown for each individual donor (left) and for all three donors as mean (right). Filled symbols represent values with and black, open symbols without target cells.
RiboMab02.1-containing as well as mock serum samples were obtained from mice administered either with BNT142 or luciferase encoding RNA-LNP (Luc_RNA-LNP; mock). Human PBMCs from three healthy donors were used as effector cells. Serum samples were serially-diluted (10-fold, 10-point), starting at 4,000 ng/mL, and added to PBMCs cultured alone or together with CLDN6-positive PA-1 target cells at an effector-to-target-cell ratio of 10:1. After 48 h of incubation, T cells were analyzed by flow cytometry for surface expression of the early and late activation markers CD69 and CD25, respectively. […] OKT3 positive control led to >50% T-cell activation with and without target cells (data not shown). Upregulation of CD69 on T cells was higher than that of CD25; CD25-positive cells were almost exclusively CD69 double-positive, pointing to an early activation state (data not shown).

human PBMCs = test: In vitro human cytokine release (multiplex ELISA on T-cell activation assay supernatants); format: cell-based; conditions: positive control
Description: Cytokine concentration values for each donor (means of technical triplicates) are shown. Filled symbols represent values with target cells while open symbols represent values without target cells.
Cell culture supernatants obtained from the T-cell activation assay were analyzed to investigate the RiboMab02.1-dependent induction of on- and off-target cytokine release. The levels of human pro-inflammatory cytokines IFN-γ, IL-1β, IL-2, IL-6, IL-10 and TNF-α were measured using a customized multiplex ELISA kit.

[8] = In vitro metabolic stability, liver microsomes; format: in vitro ADME, mouse, rat, monkey, and human; conditions: 120 min, all species
Description: (§2) The in vitro metabolic stability of ALC-0366 (aminolipid) was evaluated in mouse, rat, monkey, and human liver microsomes, S9 fractions, and hepatocytes. ALC-0366 was stable over 120 min in liver microsomes (remaining ALC-0366 >89%) and S9 fractions (remaining ALC-0366 >88%) and over 240 min in hepatocytes (remaining ALC-0366 >94%) in all species and test systems.

[9] = In vitro metabolic stability, S9 fractions; format: in vitro ADME, mouse, rat, monkey, and human; conditions: 120 min, all species
Description: as §2

[10] = In vitro metabolic stability, hepatocytes; format: in vitro ADME, mouse, rat, monkey, and human; conditions: 240 min, all species
Description: as §2

## CCCCCCCCCCCCCCN(CCCCCCCCCCCCCC)C(=O)COCCOCCOCCOCCOCCOCCOCCOCCOCCOCCOCCOCCOCCOCCOCCOCCOCCOCCOCCOCCOCCOCCOCCOCCOCCOCCOCCOCCOCCOCCOCCOCCOCCOCCOCCOCCOCCOCCOCCOCCOCCOCCOCCOCCOCCOC [ALC-0159, 2-[(Polyethylene glycol)-2000]-N,N-ditetradecylacetamide]
[1]; IV administration of RNA-LNP
  excretion in urine: no detectable excretion
  percentage of dose excreted unchanged in feces: ~50%
[1]; read-out: initial plasma half-life (converted)
  half-life: 1.72 h
[1]; read-out: terminal elimination half-life in plasma (converted)
  half-life: 72.7 h
[1]; during 2 wk study
  drop of plasma concentration: approximately 8,000 fold
[1]; single IV
  estimated percent of lipid dose distributed to the liver: ~20%
[2]
  metabolism: metabolized relatively slowly by amide bond hydrolysis

## reference protein: recombinant purified CD3×(CLDN6)2 tribody reference protein, sequence-identical to RiboMab02.1
[3]; 100 μg reference protein IV once weekly x5
  start of tumor volume shrinkage: after the third treatment
[3]; 100 μg reference protein, 72 h after third injection
  TIL per mm^2 tumor tissue (average): 1,542 per mm^2
[3]; treated groups in contrast to negative control groups
  tumor reduction: significant tumor reduction
[4]
  human cytokine elevation in serum: transient but significant elevation of all six cytokines
CLDN6
  interaction with CLDN6: specific interaction
[5]
  other binding: No other binding was observed
CLDN9
  interaction with CLDN9: weak off-target interaction

## OKT3: human CD3-specific antibody used as positive control for T-cell activation [reference compound]
Human PBMCs (T cells) [6]
  T-cell activation (positive control in proliferation assay): strong activation
Human PBMCs (T cells) [7]
  T-cell activation: > 50%
Human PBMCs
  cytokine release: induced cytokine release in the presence as well as absence of target cells

## CCCCCCC(CCCC)C(=O)OCCCCCCCCCN(CCCO)CCCCCCCCCOC(=O)C(CCCC)CCCCCC (centres unmarked) [ALC-0366, ((3-Hydroxypropyl)azanediyl)bis(nonane-9,1-diyl) bis(2-butyloctanoate)]
[8]
  remaining ALC-0366: > 89%
[9]
  remaining ALC-0366: > 88%
[10]
  remaining ALC-0366: > 94%

— US20250009780A1, “AGENTS ENCODING CLDN6 AND CD3 BINDING ELEMENTS FOR TREATING CLDN6-POSITIVE CANCERS” (BIONTECH SE, priority 2021, published 2025)
